Laboratory results as given in patent US11098055B2, “Ester ACC inhibitors and uses thereof” (Gilead Apollo, LLC, priority 2015, dated 2021).
Converted amounts (≈) assume the structure as drawn. Where two headings read alike, the source gives them in different places.

Experiments:
hACC2 = hACC2 (Homo sapiens, UniProt O00763); test: In vitro ACC2 inhibition assay (ADP-Glo), human ACC2; assay type: biochemical
In short: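 ADP-Glo luminescent ADP detection with 5 nM ACC2, 20 μM ATP, 20 μM acetyl-CoA, 12 mM NaHCO3, 2 mM DTT, 5% DMSO; compound (30 μM-0.00051 μM, 11 points) preincubated 15 min, reaction 60 min at room temperature. Percent inhibition against DMSO and positive controls; IC50 by four-parameter nonlinear fit.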

Botrtyis cinerea (Bc) = test: Growth inhibition assay of fungal pathogens; assay type: cell-based; conditions: 48 h, read-out: Concentration at 90% Inhibition Bc
In short: (§1)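 Spores, or mycelial plugs for Rhizoctonia, in 17% V8 medium (¼ PDB for plugs) were exposed to compound at final 50, 10 and 2 ppm or 2, 0.4 and 0.08 ppm, with 2% DMSO. Growth was read by OD600 with blank subtraction plus visual rating; percent inhibition at 48 h is relative to 2% DMSO control.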

[1] = tested on: Collectotrichum graminicola (Cg); test: Growth inhibition assay of fungal pathogens; assay type: cell-based; conditions: 48 h, read-out: Concentration at 90% Inhibition Cg
In short: as §1

Diplodia maydis (Dm) = test: Growth inhibition assay of fungal pathogens; assay type: cell-based; conditions: Stenocarpella maydis, 48 h, read-out: Concentration at 90% Inhibition Dm
In short: as §1

[2] = tested on: Fusarium moniliforme (Fm); test: Growth inhibition assay of fungal pathogens; assay type: cell-based; conditions: Fusarium verticillioides, 48 h, read-out: Concentration at 90% Inhibition Fm
In short: as §1

[3] = tested on: Fusarium virguliforme (Fv); test: Growth inhibition assay of fungal pathogens; assay type: cell-based; conditions: 48 h, read-out: Concentration at 90% Inhibition Fv
In short: as §1

[4] = tested on: Phytophthora capsici (Pc); test: Growth inhibition assay of fungal pathogens; assay type: cell-based; conditions: 48 h, read-out: Concentration at 90% Inhibition Pc
In short: as §1

Rhizoctonia solani (Rs) = test: Growth inhibition assay of fungal pathogens; assay type: cell-based; conditions: 48 h, read-out: Concentration at 90% Inhibition Rs
In short: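 Percent growth inhibition is scored at 48 h, by OD600 (blank-subtracted) and visual rating against the 2% DMSO control. Compounds were tested at final 50, 10, 2 ppm or 2, 0.4, 0.08 ppm on pathogen spores diluted in 17% V8 medium; mycelial plugs in ¼ PDB were used for Rhizoctonia.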

Septoria tritici (St) = test: Growth inhibition assay of fungal pathogens; assay type: cell-based; conditions: Zymoseptoria tritici, 48 h, read-out: Concentration at 90% Inhibition St
In short: as §1

Sequence of hACC2 (O00763 whole entry): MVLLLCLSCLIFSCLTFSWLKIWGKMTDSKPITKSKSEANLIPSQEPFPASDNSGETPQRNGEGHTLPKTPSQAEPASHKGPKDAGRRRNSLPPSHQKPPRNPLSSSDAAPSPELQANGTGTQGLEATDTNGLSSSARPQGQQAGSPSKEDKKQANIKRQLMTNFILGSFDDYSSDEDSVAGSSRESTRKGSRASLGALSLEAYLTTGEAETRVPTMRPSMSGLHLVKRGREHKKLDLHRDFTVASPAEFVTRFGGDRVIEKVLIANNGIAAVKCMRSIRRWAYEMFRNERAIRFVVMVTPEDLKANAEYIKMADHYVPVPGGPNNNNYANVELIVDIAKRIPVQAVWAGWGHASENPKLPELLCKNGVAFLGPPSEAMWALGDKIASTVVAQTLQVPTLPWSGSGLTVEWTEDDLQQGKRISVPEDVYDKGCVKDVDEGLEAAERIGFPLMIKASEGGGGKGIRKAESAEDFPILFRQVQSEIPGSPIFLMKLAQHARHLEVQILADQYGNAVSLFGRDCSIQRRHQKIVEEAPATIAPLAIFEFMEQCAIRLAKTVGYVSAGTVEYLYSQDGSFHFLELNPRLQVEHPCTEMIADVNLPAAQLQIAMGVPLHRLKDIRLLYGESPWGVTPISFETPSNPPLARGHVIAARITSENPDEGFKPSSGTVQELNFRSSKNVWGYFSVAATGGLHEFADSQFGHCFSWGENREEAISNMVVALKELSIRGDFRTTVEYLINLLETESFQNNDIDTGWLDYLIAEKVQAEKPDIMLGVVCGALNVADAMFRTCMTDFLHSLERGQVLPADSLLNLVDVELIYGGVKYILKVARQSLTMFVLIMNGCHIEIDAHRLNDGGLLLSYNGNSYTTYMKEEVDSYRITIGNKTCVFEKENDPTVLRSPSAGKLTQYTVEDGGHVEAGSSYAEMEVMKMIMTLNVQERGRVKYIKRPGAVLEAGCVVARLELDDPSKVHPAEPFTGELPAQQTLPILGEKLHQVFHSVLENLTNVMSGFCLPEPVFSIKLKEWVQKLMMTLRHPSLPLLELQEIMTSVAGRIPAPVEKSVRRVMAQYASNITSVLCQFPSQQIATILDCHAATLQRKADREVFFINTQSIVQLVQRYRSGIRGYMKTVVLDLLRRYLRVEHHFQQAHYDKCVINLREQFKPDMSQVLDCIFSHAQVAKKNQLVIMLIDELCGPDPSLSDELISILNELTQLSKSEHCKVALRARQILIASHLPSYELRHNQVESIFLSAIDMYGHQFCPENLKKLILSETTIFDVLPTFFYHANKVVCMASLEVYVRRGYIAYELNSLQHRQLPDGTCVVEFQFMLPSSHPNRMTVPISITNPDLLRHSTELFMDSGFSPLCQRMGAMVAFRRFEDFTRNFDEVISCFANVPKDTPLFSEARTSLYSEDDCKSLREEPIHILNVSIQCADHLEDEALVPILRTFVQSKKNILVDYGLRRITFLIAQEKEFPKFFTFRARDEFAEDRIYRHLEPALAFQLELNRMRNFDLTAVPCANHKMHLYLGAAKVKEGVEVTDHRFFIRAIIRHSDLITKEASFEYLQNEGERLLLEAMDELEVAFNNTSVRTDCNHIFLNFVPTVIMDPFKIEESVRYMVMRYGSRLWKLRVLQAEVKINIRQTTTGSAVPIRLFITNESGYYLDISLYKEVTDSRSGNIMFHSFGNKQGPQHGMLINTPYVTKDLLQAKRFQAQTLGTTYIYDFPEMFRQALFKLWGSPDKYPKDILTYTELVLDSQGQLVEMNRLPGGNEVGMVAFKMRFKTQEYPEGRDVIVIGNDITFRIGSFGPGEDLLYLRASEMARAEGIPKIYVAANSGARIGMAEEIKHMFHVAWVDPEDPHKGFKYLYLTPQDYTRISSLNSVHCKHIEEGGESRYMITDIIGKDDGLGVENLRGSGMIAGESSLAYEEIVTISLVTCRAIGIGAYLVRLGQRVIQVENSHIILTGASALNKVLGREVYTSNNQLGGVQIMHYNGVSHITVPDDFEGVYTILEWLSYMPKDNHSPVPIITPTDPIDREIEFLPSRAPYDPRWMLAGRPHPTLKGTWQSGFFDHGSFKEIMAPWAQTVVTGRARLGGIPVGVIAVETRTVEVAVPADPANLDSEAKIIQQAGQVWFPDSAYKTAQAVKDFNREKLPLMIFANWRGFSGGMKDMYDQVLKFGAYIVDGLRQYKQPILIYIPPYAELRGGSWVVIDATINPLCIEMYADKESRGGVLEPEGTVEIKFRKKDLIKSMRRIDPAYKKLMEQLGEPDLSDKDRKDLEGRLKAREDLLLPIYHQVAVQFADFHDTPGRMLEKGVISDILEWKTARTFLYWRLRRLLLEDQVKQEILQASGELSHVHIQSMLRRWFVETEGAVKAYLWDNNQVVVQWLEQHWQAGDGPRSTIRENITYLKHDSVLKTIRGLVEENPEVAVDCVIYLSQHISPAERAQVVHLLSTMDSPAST

Compound | IC50 (hACC2; Table 2b (additional results)) [nM] | IC90 (Botrtyis cinerea (Bc); Table 4b) [µg/mL] | IC90 ([1]; Table 4b) [µg/mL] | IC90 (Diplodia maydis (Dm); Table 4b) [µg/mL] | IC90 ([2]; Table 4b) [µg/mL] | IC90 ([3]; Table 4b) [µg/mL] | IC90 ([4]; Table 4b) [µg/mL] | IC90 (Rhizoctonia solani (Rs); Table 4b) [µg/mL] | IC90 (Septoria tritici (St); Table 4b) [µg/mL] | IC50 (hACC2; Table 2a) [nM] | IC90 (Botrtyis cinerea (Bc); Table 4a) [µg/mL] | IC90 ([1]; Table 4a) [µg/mL] | IC90 (Diplodia maydis (Dm); Table 4a) [µg/mL] | IC90 ([2]; Table 4a) [µg/mL] | IC90 ([3]; Table 4a) [µg/mL] | IC90 ([4]; Table 4a) [µg/mL] | IC90 (Rhizoctonia solani (Rs); Table 4a) [µg/mL] | IC90 (Septoria tritici (St); Table 4a) [µg/mL]
CCNC(=O)C(C)(C)n1c(=O)c2c(C)c(C(=O)OCC)sc2n(C[C@H](OCCC#N)c2ccccc2OC)c1=O [Compound I-32, ethyl (R)-1-(2-(2-cyanoethoxy)-2-(2-methoxyphenyl)ethyl)-3-(1-(ethylamino)-2-methyl-1-oxopropan-2-yl)-5-methyl-2,4-dioxo-1,2,3,4-tetrahydrothieno[2,3-d]pyrimidine-6-carboxylate] | 3 to 10 | 2 (≈ 3.5 µM) | 2 (≈ 3.5 µM) | 2 (≈ 3.5 µM) | 0.08 (≈ 0.14 µM) | 2 (≈ 3.5 µM) | ≥ 50 | 2 (≈ 3.5 µM) | 10 (≈ 17.5 µM) | – | – | – | – | – | – | – | – | –
CCOC(=O)c1sc2c(c1C)c(=O)n([C@H](C)C(=O)NC(C)C)c(=O)n2C[C@H](OCCC#N)c1cc(F)ccc1OC [Compound I-21, ethyl 1-((R)-2-(2-cyanoethoxy)-2-(5-fluoro-2-methoxyphenyl)ethyl)-3-((R)-1-(isopropylamino)-1-oxopropan-2-yl)-5-methyl-2,4-dioxo-1,2,3,4-tetrahydrothieno[2,3-d]pyrimidine-6-carboxylate] | 0.3 to 3 | 0.4 (≈ 0.68 µM) | 0.4 (≈ 0.68 µM) | 0.4 (≈ 0.68 µM) | 0.08 (≈ 0.136 µM) | 0.4 (≈ 0.68 µM) | 10 (≈ 17 µM) | 0.08 (≈ 0.136 µM) | ≥ 50 | – | – | – | – | – | – | – | – | –
CCOC(=O)c1sc2c(c1C)c(=O)n(C(C)(C)C(=O)N1CCCCC1)c(=O)n2C[C@H](OC1CCOCC1)c1ccccc1OC [Compound I-2, ethyl (R)-1-(2-(2-methoxyphenyl)-2-((tetrahydro-2H-pyran-4-yl)oxy)ethyl)-5-methyl-3-(2-methyl-1-oxo-1-(piperidin-1-yl)propan-2-yl)-2,4-dioxo-1,2,3,4-tetrahydrothieno[2,3-d]pyrimidine-6-carboxylate] | 10 to 40 | 0.4 (≈ 0.623 µM) | 0.4 (≈ 0.623 µM) | 2 (≈ 3.12 µM) | 0.4 (≈ 0.623 µM) | 0.4 (≈ 0.623 µM) | ≥ 50 | 0.4 (≈ 0.623 µM) | 10 (≈ 15.6 µM) | 10 to 40 | 0.4 (≈ 0.623 µM) | 0.4 (≈ 0.623 µM) | 2 (≈ 3.12 µM) | 0.4 (≈ 0.623 µM) | 0.4 (≈ 0.623 µM) | ≥ 50 | 2 (≈ 3.12 µM) | ≥ 50
CCOC(=O)c1sc2c(c1C)c(=O)n(C(C)(C)C(=O)NC(C)C)c(=O)n2C[C@H](OCCO)c1cc(F)ccc1OC [Compound I-18, (R)-ethyl 1-(2-(5-fluoro-2-methoxyphenyl)-2-(2-hydroxy-ethoxy)ethyl)-3-(1-(isopropylamino)-2-methyl-1-oxopropan-2-yl)-5-methyl-2,4-dioxo-1,2,3,4-tetrahydrothieno[2,3-d]pyrimidine-6-carboxylate] | – | 2 (≈ 3.37 µM) | 0.4 (≈ 0.674 µM) | 0.4 (≈ 0.674 µM) | 0.08 (≈ 0.135 µM) | 2 (≈ 3.37 µM) | ≥ 50 | 0.08 (≈ 0.135 µM) | ≥ 50 | 10 to 40 | 2 (≈ 3.37 µM) | 0.4 (≈ 0.674 µM) | 0.4 (≈ 0.674 µM) | 0.08 (≈ 0.135 µM) | 2 (≈ 3.37 µM) | ≥ 50 | 0.08 (≈ 0.135 µM) | ≥ 50
CCOC(=O)c1sc2c(c1C)c(=O)n(C(C)(C)C(=O)N1CCOCC1)c(=O)n2C[C@H](OC(C)C)c1ccccc1OC [Compound I-5, (R)-ethyl 1-(2-isopropoxy-2-(2-methoxyphenyl)ethyl)-5-methyl-3-(2-methyl-1-morpholino-1-oxopropan-2-yl)-2,4-dioxo-1,2,3,4-tetrahydrothieno[2,3-d]pyrimidine-6-carboxylate] | 10 to 40 | 0.4 (≈ 0.665 µM) | 10 (≈ 16.6 µM) | 2 (≈ 3.32 µM) | 0.4 (≈ 0.665 µM) | 10 (≈ 16.6 µM) | ≥ 50 | ≥ 50 | ≥ 50 | 10 to 40 | 0.4 (≈ 0.665 µM) | ≥ 50 | 2 (≈ 3.32 µM) | 0.4 (≈ 0.665 µM) | ≥ 50 | ≥ 50 | ≥ 50 | ≥ 50
CCOC(=O)c1sc2c(c1C)c(=O)n([C@H](C)C(=O)N1CCCC1)c(=O)n2C[C@H](OCCC#N)c1cc(F)ccc1OC [Compound I-24, ethyl 1-((R)-2-(2-cyanoethoxy)-2-(5-fluoro-2-methoxy-phenyl)ethyl)-5-methyl-2,4-dioxo-3-((R)-1-oxo-1-(pyrrolidin-1-yl)propan-2-yl)-1,2,3,4-tetrahydrothieno[2,3-d]pyrimidine-6-carboxylate] | 3 to 10 | 2 (≈ 3.33 µM) | 2 (≈ 3.33 µM) | 2 (≈ 3.33 µM) | 0.08 (≈ 0.133 µM) | 2 (≈ 3.33 µM) | ≥ 50 | 0.08 (≈ 0.133 µM) | ≥ 50 | – | – | – | – | – | – | – | – | –
CCOC(=O)c1sc2c(c1C)c(=O)n(C(C)(C)C(=O)N1CCCC1)c(=O)n2C[C@H](OCCC#N)c1cc(F)ccc1OC [Compound I-16, (R)-ethyl 1-(2-(2-cyanoethoxy)-2-(5-fluoro-2-methoxy-phenyl)ethyl)-5-methyl-3-(2-methyl-1-oxo-1-(pyrrolidin-1-yl)propan-2-yl)-2,4-dioxo-1,2,3,4-tetrahydrothieno[2,3-d]pyrimidine-6-carboxylate] | – | 2 (≈ 3.25 µM) | 2 (≈ 3.25 µM) | 2 (≈ 3.25 µM) | 0.08 (≈ 0.13 µM) | 2 (≈ 3.25 µM) | ≥ 50 | 0.4 (≈ 0.651 µM) | ≥ 50 | 3 to 10 | 2 (≈ 3.25 µM) | 2 (≈ 3.25 µM) | 2 (≈ 3.25 µM) | 0.08 (≈ 0.13 µM) | 2 (≈ 3.25 µM) | ≥ 50 | 0.4 (≈ 0.651 µM) | ≥ 50
CCOC(=O)c1sc2c(c1C)c(=O)n(C(C)(C)C(=O)N1CCCC1)c(=O)n2C[C@H](O)c1cc(F)ccc1OC [Compound I-22, (R)-ethyl 1-(2-(5-fluoro-2-methoxyphenyl)-2-hydroxyethyl)-5-methyl-3-(2-methyl-1-oxo-1-(pyrrolidin-1-yl)propan-2-yl)-2,4-dioxo-1,2,3,4-tetrahydrothieno[2,3-d]pyrimidine-6-carboxylate] | 10 to 40 | 2 (≈ 3.56 µM) | 10 (≈ 17.8 µM) | ≥ 50 | 2 (≈ 3.56 µM) | 2 (≈ 3.56 µM) | ≥ 50 | 0.08 (≈ 0.142 µM) | ≥ 50 | – | – | – | – | – | – | – | – | –
CCOC(=O)c1sc2c(c1C)c(=O)n(C(C)(C)C(=O)NC(C)C)c(=O)n2CCc1cc(F)ccc1OC [Compound I-40, ethyl 1-(5-fluoro-2-methoxyphenethyl)-3-(1-(isopropylamino)-2-methyl-1-oxopropan-2-yl)-5-methyl-2,4-dioxo-1,2,3,4-tetrahydrothieno[2,3-d]pyrimidine-6-carboxylate] | 10 to 40 | 2 (≈ 3.75 µM) | 10 (≈ 18.7 µM) | 10 (≈ 18.7 µM) | 2 (≈ 3.75 µM) | 2 (≈ 3.75 µM) | ≥ 50 | ≥ 50 | ≥ 50 | – | – | – | – | – | – | – | – | –
CCOC(=O)c1sc2c(c1C)c(=O)n(C(C)(C)C(=O)NC(C)C)c(=O)n2C[C@H](O)c1cc(F)ccc1OC [Compound I-19, (R)-ethyl 1-(2-(5-fluoro-2-methoxyphenyl)-2-hydroxyethyl)-3-(1-(isopropylamino)-2-methyl-1-oxopropan-2-yl)-5-methyl-2,4-dioxo-1,2,3,4-tetrahydrothieno[2,3-d]pyrimidine-6-carboxylate] | 3 to 10 | 0.4 (≈ 0.728 µM) | 2 (≈ 3.64 µM) | 2 (≈ 3.64 µM) | 0.08 (≈ 0.146 µM) | 0.08 (≈ 0.146 µM) | ≥ 50 | 0.4 (≈ 0.728 µM) | ≥ 50 | – | 0.4 (≈ 0.728 µM) | 2 (≈ 3.64 µM) | 2 (≈ 3.64 µM) | 0.08 (≈ 0.146 µM) | 0.08 (≈ 0.146 µM) | ≥ 50 | 0.4 (≈ 0.728 µM) | ≥ 50
CCOC(=O)c1sc2c(c1C)c(=O)n(C(C)(C)C(=O)N1CCCCC1)c(=O)n2C[C@H](OC(C)C)c1ccccc1OC [Compound I-6, (R)-ethyl 1-(2-isopropoxy-2-(2-methoxyphenyl)ethyl)-5-methyl-3-(2-methyl-1-oxo-1-(piperidin-1-yl)propan-2-yl)-2,4-dioxo-1,2,3,4-tetrahydrothieno[2,3-d]pyrimidine-6-carboxylate] | 10 to 40 | 0.4 (≈ 0.667 µM) | 0.4 (≈ 0.667 µM) | 0.4 (≈ 0.667 µM) | 0.08 (≈ 0.133 µM) | 0.4 (≈ 0.667 µM) | ≥ 50 | 0.4 (≈ 0.667 µM) | 2 (≈ 3.33 µM) | 10 to 40 | 0.4 (≈ 0.667 µM) | 0.4 (≈ 0.667 µM) | 0.4 (≈ 0.667 µM) | 0.08 (≈ 0.133 µM) | 0.4 (≈ 0.667 µM) | ≥ 50 | 0.4 (≈ 0.667 µM) | 10 (≈ 16.7 µM)
